{"source": "patent US20240050735A1", "about": "“SYSTEMS AND METHODS FOR TREATING AND INHIBITING WOUND INFECTIONS” (priority 2020, published 2024)", "key": {"MRSA biofilm": {"system": "MRSA biofilm", "details": "cited from earlier work"}, "planktonic MRSA [1]": {"system": "planktonic MRSA", "assay": "Minimum inhibitory concentration (MIC) to planktonic MRSA", "type": "cell-based, Methicillin-resistant S. aureus (MRSA) USA300", "details": "Staphylococcus aureus; planktonic MRSA cells, 24 hours, OD600", "procedure": "Methicillin-resistant S. aureus (MRSA) USA300 strain was used in this study. The planktonic bacteria were cultured in LB medium. Vancomycin hydrochloride (Apexbio Technology LLC, Houston, Tex., USA) and daptomycin (Combi-Blocks, San Diago Calif., USA) were used to treat MRSA biofilm. The minimum inhibitory concentration (MIC) of vancomycin hydrochloride to planktonic MRSA cells was determined as 1.2 μg mL^−1 (see FIG. 17B), which was in consistent with the results reported previously.\nMRSA bacteria was cultured in LB media in a 37° C. water shaking bath overnight to reach the concentration of 1×10^8 CFU mL^−1. Then, they were diluted to 10^5 CFU mL^−1 in 96-well plates by adding different concentrations of VAN solutions. After incubation for 24 hours without shaking, MIC of VAN to inhibit MRSA growth was measured by a Biotek Synergy H1 hybrid multi-mode microplate reader (BioTek, Winooski, Vt., USA) at OD600. To evaluate the killing time of VAN to bacteria in stationary phase (1×10^8 CFU mL^−1), VAN powder was added to bacteria solution to obtain concentration of 1 mg mL^−1, 3 mg mL^−1, 5 mg mL^−1, and 10 mg mL^−1, respectively, while remaining MRSA concentration of 1×10^8 CFU mL^−1. After incubation in a 37° C. water bath for 1 day, 2 days, 3 days and 4 days, the CFU of MRSA cells was tested by the standard plate spread counting assay, respectively. […]"}, "S. aureus biofilms [2]": {"system": "S. aureus biofilms", "details": "cited from earlier work"}, "planktonic MRSA [3]": {"system": "planktonic MRSA", "assay": "Time-killing test on planktonic MRSA in stationary phase", "type": "cell-based, Methicillin-resistant S. aureus (MRSA) USA300", "details": "10 mg mL^−1 VAN, 4-day incubation", "procedure": "MRSA bacteria was cultured in LB media in a 37° C. water shaking bath overnight to reach the concentration of 1×10^8 CFU mL^−1. Then, they were diluted to 10^5 CFU mL^−1 in 96-well plates by adding different concentrations of VAN solutions. After incubation for 24 hours without shaking, MIC of VAN to inhibit MRSA growth was measured by a Biotek Synergy H1 hybrid multi-mode microplate reader (BioTek, Winooski, Vt., USA) at OD600. To evaluate the killing time of VAN to bacteria in stationary phase (1×10^8 CFU mL^−1), VAN powder was added to bacteria solution to obtain concentration of 1 mg mL^−1, 3 mg mL^−1, 5 mg mL^−1, and 10 mg mL^−1, respectively, while remaining MRSA concentration of 1×10^8 CFU mL^−1. After incubation in a 37° C. water bath for 1 day, 2 days, 3 days and 4 days, the CFU of MRSA cells was tested by the standard plate spread counting assay, respectively. The time-killing tests of DAP with different concentrations (0.1 mg mL^−1, 0.5 mg mL^−1, 1 mg mL^−1, and 5 mg mL^−1) on MRSA planktonic cells were also performed, with the incubation time up to 24 hours."}, "[4]": {"details": "conventional transdermal iontophoresis 0.31 mA cm^−2; cited from earlier work"}, "[5]": {"details": "0.3 mA cm^−2 for 4 hours; cited from earlier work"}, "S. aureus biofilms [6]": {"system": "S. aureus biofilms", "details": "cited from earlier work", "remark": "listed apart in the source"}}, "note": "Counter-ions that a name gives are not always drawn."}
{"smiles": "CN[C@H](CC(C)C)C(=O)N[C@H]1C(=O)N[C@@H](CC(N)=O)C(=O)N[C@H]2C(=O)N[C@H]3C(=O)N[C@H](C(=O)N[C@H](C(=O)O)c4cc(O)cc(O)c4-c4cc3ccc4O)[C@H](O)c3ccc(c(Cl)c3)Oc3cc2cc(c3O[C@@H]2O[C@H](CO)[C@@H](O)[C@H](O)[C@H]2O[C@H]2C[C@](C)(N)[C@H](O)[C@H](C)O2)Oc2ccc(cc2Cl)[C@H]1O", "note": "[VAN, Vancomycin hydrochloride]", "values": [{"measurement": "minimal biofilm eradication concentration (MBEC)", "setting": "MRSA biofilm", "value": 4, "unit": "mg/g"}, {"measurement": "MIC", "setting": "planktonic MRSA [1]", "value": 1.2, "unit": "µg/mL"}, {"measurement": "diffusion coefficient in S. aureus biofilms", "setting": "S. aureus biofilms [2]; 2012 study", "value": 0.2, "unit": "μm 2 s^−1"}, {"measurement": "slower than its diffusion in water", "setting": "S. aureus biofilms [2]; S. aureus biofilms", "value": "more than 1,000 times"}, {"measurement": "bacterial count after incubation (from 10^8 CFU g^−1)", "setting": "planktonic MRSA [3]", "value": "10^6 CFU g^−1"}, {"measurement": "permeation coefficient (Pc)", "setting": "[4]", "value": "2.21e+11", "unit": "×10⁻⁶ cm/s"}, {"measurement": "amount delivered into the epidermis by iontophoresis vs passive diffusion", "setting": "[5]", "value": 2.1, "unit": "times"}, {"measurement": "biofilm bacterial density reduction", "setting": "S. aureus biofilms [6]; 2 mA (0.17 mA cm^−2) for 24 hours with 32 μg mL^−1 vancomycin", "value": 1, "unit": "log10 scale"}, {"measurement": "antibacterial effect", "setting": "S. aureus biofilms [6]; vancomycin alone", "value": "no antibacterial effect"}]}
